Results taken from patent US12239645B2, “Targeted dosing for the treatment of complement mediated disorders” (Achillion Pharmaceuticals, Inc., priority 2018, dated 2025).
Values after ≈ are worked out from the molar mass of the structure shown. Read-outs that look alike come from different tables or passages of the source.

Test system: complement alternative pathway (AP) activity
Test: MAD study: ex vivo serum AP hemolysis activity and PK-PD analysis
Type: in vivo, human
Settings: for minimum AP activity following dosing: Days 7 and 14
Method: Ex vivo serum AP hemolysis assays were conducted in 96-well microtiter plates divided into two parts, one for hemolysis and the other for serum background color subtraction. Briefly, a suspension of rabbit red blood cells (RBCs) was centrifuged at 800×g at 4° C. for 3 minutes and the supernatant was removed to get rid of the RBC debris. The RBC cell pellet was re-suspended gently with pre-chilled gelatin veronal buffer (GVB0) containing 10 mM MgEGTA to a density of 5×10^8 cells/mL. Other controls including buffer, spontaneous rabbit RBC lysis, 100% RBC lysis (in water), and normal serum control were set up alongside the test samples as well. Serum was placed in a 37° C. water-bath until mostly thawed and immediately transferred to ice bath. 20% serum was prepared with GVB0-MgEGTA buffer and kept at ice bath before testing. Reactions were carried out in a 96 well plate by mixing 50 μl of 20% serum with equal volume of GVB0-MgEGTA buffer and then quickly adding 20 μl of RBC suspension. The plate was shaken on a microtiter plate shaker for 5 seconds and then incubated at 37° C. for 30 minutes. Halfway during the incubation period, the plate was shaken for another 5 seconds as described above. At the end of the incubation, the plate was centrifuged at 800×g at 4° C. for 3 minutes to pellet the un-lysed rabbit RBCs. 80 μl of supernatant was removed carefully from all wells and transferred to a clear flat-bottom microtiter plate for the measurement of optical absorbance at 405 nm (A405) in a Molecular Devices Spectramax Plus plate reader. AP hemolysis in each well was calculated relative to the activity of the NHS reference sample formulas as follows: Hemolysis (%)=((Hm−Bk)−(Sp−Bf))/((NH−BkNH)−(Sp−Bf))×100%
where Hm=A405 in the hemolysis well, Bk=A405 in the corresponding background well, Sp=mean A405 in the spontaneous hemolysis wells, Bf=mean A405 in the buffer alone wells, NH=mean A405 in the reference NHS wells, and BkNH=mean A405 in the corresponding background wells.
The PK-PD relationship was evaluated using time-matched plasma Compound 1 concentrations and serum AP inhibition values by non-linear regression with GraphPad Prism (La Jolla, CA) using the following two models: • 1. The simple Emax model to determine the 50% effective concentration (EC50): Y=E0+Emax×X/(EC50+X) where X=plasma Compound 1 concentration, Y=percent inhibition in the corresponding serum sample, E0=0% inhibition (pre-dose AP activity), and Emax=100% inhibition. • 2. The four-parameter sigmoidal model to determine EC50 and the 90% effective concentration (EC90): Y=E0+(Emax−E0)/(1+10^((Log EC50−X)×HillSlope)) where X, Y, E0, and Emax are defined as above (Emax model) and HillSlope=the slope factor or Hill slope. Pharmacodynamic and Pharmacokinetic Results AP Activity Measured with AP Hemolysis
A multiple ascending dose (MAD) study of Compound 1 with two additional single-dose cohorts was also completed. […] Secondary objectives included evaluation of the pharmacokinetic (PK) profile and the relationship between Compound 1 PK and pharmacodynamic (PD) characteristics, that is, the inhibition of complement alternative pathway (AP) activity (PK/PD). In the MAD study, multiple-dose pharmacokinetics and pharmacodynamics of Compound 1 were evaluated in four dose groups administered Compound 1 (40, 80, 120 and 200 mg BID) in the fasted state for 14-days (Table 3). Eight subjects received active drug in each group; eight subjects received placebo in the first dose group (40 mg) and two subjects received placebo in each of the other three dose groups. Two additional cohorts were administered Compound 1 at single doses of 240 mg (fasted subjects) and 120 mg (fed subjects) (Table 3). The two single-dose cohorts each comprised six subjects receiving active drug and two subjects receiving placebo. […]

[1] = 40 mg BID, Day 14, AP hemolysis
[2] = 40 mg BID, Days 7 and 14 Combined Analysis, AP hemolysis
[3] = 80 mg BID, Day 14, AP hemolysis
[4] = 80 mg BID, Days 7 and 14 Combined Analysis, AP hemolysis
[5] = 120 mg BID, Day 7, AP hemolysis
[6] = 120 mg BID, Day 14, AP hemolysis
[7] = 120 mg BID, Days 7 and 14 Combined Analysis, AP hemolysis
[8] = 120 mg and 200 mg BID, 14 days, FIG. 13
[9] = 200 mg BID, Day 7, AP hemolysis
[10] = 200 mg BID, Day 14, AP hemolysis
[11] = 200 mg BID, Days 7 and 14 Combined Analysis, AP hemolysis
[12] = Homo sapiens, sigmoidal model, multiple-dose cohorts, AP hemolysis

CC(=O)c1nn(CC(=O)N2[C@H](C(=O)Nc3nc(Br)ccc3C)C[C@@]3(C)C[C@@H]23)c2ccc(-c3cnc(C)nc3)cc12 [Compound 1, (1R,3S,5R)-2-(2-(3-acetyl-5-(2-methylpyrimidin-5-yl)-1H-indazol-1-yl)acetyl)-N-(6-bromo-3-methylpyridin-2-yl)-5-methyl-2-azabicyclo[3.1.0]hexane-3-carboxamide]
% AUEC0-12, Mean (40 mg BID, Day 7, AP hemolysis): 49.9% | DURATION0-12 (time with AP inhibition 90% or greater), Mean (40 mg BID, Day 7, AP hemolysis): 2.0 h | % AUEC0-12, Mean [1]: 61.4% | DURATION0-12 (time with AP inhibition 90% or greater), Mean [1]: 2.6 h | minimum AP activity following dosing (40 mg BID): 4.00% | % AUEC0-12, Mean [2]: 55.6% | DURATION0-12 (time with AP inhibition 90% or greater), Mean [2]: 2.3 h | % AUEC0-12, Mean (80 mg BID, Day 7, AP hemolysis): 87.4% | DURATION0-12 (time with AP inhibition 90% or greater), Mean (80 mg BID, Day 7, AP hemolysis): 7.3 h | % AUEC0-12, Mean [3]: 87.7% | DURATION0-12 (time with AP inhibition 90% or greater), Mean [3]: 8.0 h | % AUEC0-12, Mean [4]: 87.6% | DURATION0-12 (time with AP inhibition 90% or greater), Mean [4]: 7.6 h | mean AP activity (120 mg BID, 0 h to 10 h on Day 7 and 0 h to 12 h on Day 14): below 10% | % AUEC0-12, Mean [5]: 97.5% | DURATION0-12 (time with AP inhibition 90% or greater), Mean [5]: 10.9 h | % AUEC0-12, Mean [6]: 98.8% | DURATION0-12 (time with AP inhibition 90% or greater), Mean [6]: 11.6 h | % AUEC0-12, Mean [7]: 98.2% | DURATION0-12 (time with AP inhibition 90% or greater), Mean [7]: 11.3 h | average reduction in AP hemolysis [8]: over 95% | reduction in AP hemolysis for the duration of the study [8]: over 90% | serum AP hemolysis activity (120 mg single dose fed, from 2 h through 6 h): ≤ 10% | mean AP activity (200 mg BID, 0 h to 12 h on Days 7 and 14): below 10% | % AUEC0-12, Mean [9]: 99.5% | DURATION0-12 (time with AP inhibition 90% or greater), Mean [9]: 11.9 h | % AUEC0-12, Mean [10]: 98.8% | DURATION0-12 (time with AP inhibition 90% or greater), Mean [10]: 11.5 h | % AUEC0-12, Mean [11]: 99.1% | DURATION0-12 (time with AP inhibition 90% or greater), Mean [11]: 11.7 h | time mean inhibition persisted at 90% or greater post-dose (240 mg single dose): at least 12 hours | serum AP hemolysis activity (240 mg single dose fasted, from 1.5 h through 16 h): ≤ 10% | AP inhibition, all subjects (240 mg single dose, within two hours of dosing): ≥ 90% | minimum AP activity following dosing (Groups 2 through 4 (80, 120, 200 mg BID)): 0.00% | inhibition at 40 mg (Homo sapiens, 0 h, 40 mg BID, Days 6 Through 14, AP hemolysis, read-out: AP Inhibition at 0 hr, Mean): 28.7% | inhibition at 80 mg (Homo sapiens, 0 h, 80 mg BID, Days 6 Through 14, AP hemolysis, read-out: AP Inhibition at 0 hr, Mean): 74.1% | inhibition at 120 mg (Homo sapiens, 0 h, 120 mg BID, Days 6 Through 14, AP hemolysis, read-out: AP Inhibition at 0 hr, Mean): 97.2% | inhibition at 200 mg (Homo sapiens, 0 h, 200 mg BID, Days 6 Through 14, AP hemolysis, read-out: AP Inhibition at 0 hr, Mean): 97.6% | inhibition at 40 mg (Homo sapiens, 40 mg BID, Day 7, AP hemolysis, read-out: AP Inhibition at 0 hr, Mean): 20% | inhibition at 40 mg (Homo sapiens, 40 mg BID, Day 7, AP hemolysis, read-out: AP Inhibition at 12 hr, Mean): 17.5% | inhibition at 40 mg (Homo sapiens, 40 mg BID, Day 14, AP hemolysis, read-out: AP Inhibition at 0 hr, Mean): 29.2% | inhibition at 40 mg (Homo sapiens, 40 mg BID, Day 14, AP hemolysis, read-out: AP Inhibition at 12 hr, Mean): 29% | inhibition at 80 mg (Homo sapiens, 80 mg BID, Day 7, AP hemolysis, read-out: AP Inhibition at 0 hr, Mean): 60.5% | inhibition at 80 mg (Homo sapiens, 80 mg BID, Day 7, AP hemolysis, read-out: AP Inhibition at 12 hr, Mean): 61.5% | inhibition at 80 mg (Homo sapiens, 80 mg BID, Day 14, AP hemolysis, read-out: AP Inhibition at 0 hr, Mean): 79% | inhibition at 80 mg (Homo sapiens, 80 mg BID, Day 14, AP hemolysis, read-out: AP Inhibition at 12 hr, Mean): 52% | inhibition at 120 mg (Homo sapiens, 120 mg BID, AP Hemolysis and AP Wieslab assays, read-out: AP inhibition, mean value at Ctrough): > 90% | inhibition at 120 mg (Homo sapiens, 120 mg BID, Day 7, AP hemolysis, read-out: AP Inhibition at 0 hr, Mean): 91.8% | inhibition at 120 mg (Homo sapiens, 120 mg BID, Day 7, AP hemolysis, read-out: AP Inhibition at 12 hr, Mean): 86% | inhibition at 120 mg (Homo sapiens, 120 mg BID, Day 14, AP hemolysis, read-out: AP Inhibition at 0 hr, Mean): 99.7% | inhibition at 120 mg (Homo sapiens, 120 mg BID, Day 14, AP hemolysis, read-out: AP Inhibition at 12 hr, Mean): 89.7% | inhibition at 200 mg (Homo sapiens, 200 mg BID, AP Hemolysis and AP Wieslab assays, read-out: AP inhibition, mean value at Ctrough): > 95% | inhibition at 200 mg (Homo sapiens, 200 mg BID, Day 7, AP hemolysis, read-out: AP Inhibition at 0 hr, Mean): 95% | inhibition at 200 mg (Homo sapiens, 200 mg BID, Day 7, AP hemolysis, read-out: AP Inhibition at 12 hr, Mean): 97.3% | inhibition at 200 mg (Homo sapiens, 200 mg BID, Day 14, AP hemolysis, read-out: AP Inhibition at 0 hr, Mean): 98.8% | inhibition at 200 mg (Homo sapiens, 200 mg BID, Day 14, AP hemolysis, read-out: AP Inhibition at 12 hr, Mean): 92.8% | inhibition at 40 mg (Homo sapiens, 12 h, 40 mg BID, Days 6 Through 14, AP hemolysis, read-out: AP Inhibition at 12 hr, Mean): 23.3% | inhibition at 80 mg (Homo sapiens, 12 h, 80 mg BID, Days 6 Through 14, AP hemolysis, read-out: AP Inhibition at 12 hr, Mean): 56.8% | inhibition at 120 mg (Homo sapiens, 12 h, 120 mg BID, Days 6 Through 14, AP hemolysis, read-out: AP Inhibition at 12 hr, Mean): 87.8% | inhibition at 200 mg (Homo sapiens, 12 h, 200 mg BID, Days 6 Through 14, AP hemolysis, read-out: AP Inhibition at 12 hr, Mean): 95.1% | inhibition at 0.08 µg/mL (Homo sapiens, at Ctrough of about 80 ng/mL, MAD, ex vivo AP activity assays): ~90% | inhibition at 0.15 µg/mL (Homo sapiens, at Ctrough of about 150 ng/mL, MAD, ex vivo AP activity assays): > 95% | inhibition at 120 mg (Homo sapiens, po, steady state Ctrough, oral 120 mg BID, read-out: mean alternative pathway inhibition): > 95% | EC50 (Homo sapiens, simple Emax model, multiple-dose cohorts, AP hemolysis): 0.0191 µg/mL (≈ 0.0317 µM) | IC90 (Homo sapiens, sigmoidal model, multiple ascending dose, ex-vivo AP hemolysis, FIG. 12, read-out: modeled IC90 drug plasma concentration (90% inhibition level)): 0.088 µg/mL (≈ 0.146 µM) | EC50 [12]: 0.0246 µg/mL (≈ 0.0408 µM) | EC90 [12]: 0.0881 µg/mL (≈ 0.146 µM) | recovery of AP activity to approximately pre-dose levels (all doses, three days after the last dose): ≤ 17 days | potency relative to Danicopan (IC90 plasma concentration) (sigmoidal model, FIG. 12): more than 2.5 times | time of recovery of AP hemolysis activity to nearly pre-dose levels (single-dose cohorts 240 mg and 120 mg): ≤ 48 h
